According to patent publication US20240316060A1, “LASER AND BCL-2 INHIBITORS COMBINATION TO TREAT SOLID TUMORS” (Board of Regents, The University of Texas System, priority 2023, published 2024):

Tested on: 3D spheroids
Experiment: Annexin-V assay in 3D spheroids (flow-cytometry)
Assay type: cell-based
Conditions: without laser
Text: Annexin-V Assay in 3D Spheroids
Table 2 represents the flow-cytometry of solid tumors treated with various modalities including positive controls (DMSO and H2O2) compared with boron nitride/navitoclax formulations with and without laser excitation.

SMILES | Early apoptosis | Late apoptosis | Live
C[S+](C)[O-] [DMSO] | 9.51% | 5.23% | 85%
CC1(C)CCC(c2ccc(Cl)cc2)=C(CN2CCN(c3ccc(C(=O)NS(=O)(=O)c4ccc(N[C@H](CCN5CCOCC5)CSc5ccccc5)c(S(=O)(=O)C(F)(F)F)c4)cc3)CC2)C1 [Free NAVI, Navitoclax] | 32.04% | 9.64% | 58%
OO [H2O2] | 58.37% | 40.12% | 1%
